Read-outs that look alike come from different tables or passages of the source.

The results in this text go back to patent US20240246984A1, “HETEROCYCLIC JAK INHIBITOR” (BEIJING INNOCARE PHARMA TECH CO., LTD., priority 2020, published 2024).

The target of data set [1] is human recombinant TYK2 protein (Homo sapiens, UniProt P29597). Kind of data set: TYK2 activity inhibition assay (HTRF kinase detection). To be noted: 11.25 μM ATP substrate solution. In kind it is biochemical. As to the method:
The effect of the compounds of the present invention on the activity of TYK2 was assessed by using an in vitro kinase detection assay.
The enzymatic activity of TYK2 was assessed by detecting the substrate phosphorylation level in a kinase reaction with a homogeneous time-resolved fluorescence (HTRF) kinase detection kit (Cisbio, 62TK0PEC). A reaction buffer contained an enzyme buffer (1×), 5 mM MgCl2, 1 mM DTT and 0.01% Brij35 from the kit; a human recombinant TYK2 protein (Carna Biosciences, 08-147) was diluted to a kinase reaction solution of 0.25 ng/μL with the reaction buffer; a substrate reaction solution contained 11.25 μM ATP and a biotin-labeled tyrosine kinase substrate diluted to 0.5 μM with the reaction buffer; a detection buffer contained 0.1 ng/μL Eu^3+ labeled cage antibody (Cisbio, 61T66KLB) and 25 nM streptavidin-labeled XL665 (Cisbio, 610SAXLB) in the reaction buffer; the compound was dissolved to 10 μM in DMSO, followed by a serial 4-fold dilution with DMSO to a minimum concentration of 0.061 nM. Each concentration was further diluted 40-fold with the reaction buffer. To a 384-well assay plate (Corning, 3674) were added 4 μL of the compound solutions having a series of concentrations and 2 μL of kinase reaction solutions. After being mixed evenly, the mixtures were incubated at room temperature for 15 minutes, and then 4 μL of the substrate reaction solutions were added. The reaction mixtures were incubated at room temperature for 40 minutes. Then the reaction mixtures were added with 10 μL of detection solutions, mixed evenly, and allowed to stand at room temperature for 30 minutes. An Envision plate reader (Perkin Elmer) was then used to measure the progress of the reaction at wavelengths of 620 nm and 665 nm. The signal value (absorbance at 665 nm/absorbance at 620 nm) was positively correlated with the degree of substrate phosphorylation, therefore the kinase activity of TYK2 was detected. In this assay, the group without TYK2 kinase protein was the 100% inhibition group, and the group with TYK2 kinase protein but without the test compound was the 0% inhibition group. The compound inhibition curve was plotted using XLfit software and the IC50 of its inhibition was calculated.

Data set [2] deals with human recombinant JAK2 protein (Homo sapiens, UniProt O60674). Kind of data set: JAK2 activity inhibition assay (HTRF kinase detection). In kind it is biochemical. To be noted: 2.5 μM ATP substrate solution. As to the method:
The effect of the compounds of the present invention on the activity of JAK2 was assessed by using an in vitro kinase detection assay.
The enzymatic activity of JAK2 was assessed by detecting the substrate phosphorylation level in a kinase reaction with a homogeneous time-resolved fluorescence (HTRF) kinase detection kit (Cisbio, 62TK0PEC). A reaction buffer contained an enzyme buffer (1×), 5 mM MgCl2, 1 mM DTT and 0.01% Brij35 from the kit; a human recombinant JAK2 protein (Carna Biosciences, 08-045) was diluted to a kinase reaction solution of 0.15 ng/μL with the reaction buffer; a substrate reaction solution contained 2.5 μM ATP and a biotin-labeled tyrosine kinase substrate diluted to 0.25 μM with the reaction buffer; a detection buffer contained 0.1 ng/μL Eu^3+ labeled cage antibody (Cisbio, 61T66KLB) and 12.5 nM streptavidin-labeled XL665 (Cisbio, 610SAXLB) in the reaction buffer; the compound was dissolved to 10 μM in DMSO, followed by a serial 4-fold dilution with DMSO to a minimum concentration of 0.061 nM. Each concentration was further diluted 40-fold with the reaction buffer. To a 384-well assay plate (Corning, 3674) were added 4 μL of the compound solutions having a series of concentrations and 2 μL of JAK2 kinase reaction solutions. After being mixed evenly, the mixtures were incubated at room temperature for 15 minutes, and then 4 μL of the substrate reaction solutions were added. The reaction mixtures were incubated at room temperature for 30 minutes. Then the reaction mixtures were added with 10 μL of detection solutions, mixed evenly, and allowed to stand at room temperature for 30 minutes. An Envision plate reader (Perkin Elmer) was then used to measure the progress of the reaction at wavelengths of 620 nm and 665 nm. The signal value (absorbance at 665 nm/absorbance at 620 nm) was positively correlated with the degree of substrate phosphorylation, therefore the kinase activity of JAK2 was detected. In this assay, the group without JAK2 kinase protein was the 100% inhibition group, and the group with JAK2 kinase protein but without the test compound was the 0% inhibition group. The compound inhibition curve was plotted using XLfit software and the IC50 of its inhibition was calculated.
On the technique in general: Time-resolved FRET reads energy transfer from a long-lived donor to a nearby acceptor.

Data set [3] can be described thus: Pharmacokinetic assay in mice (plasma and colon exposure). In kind it is in vivo. The settings on record: fed female C57 mice, 25 mg/kg PO, 4 hours after dosing; for concentration at 4 h: mouse. As to the method:
Test compounds were formulated into a 5 mg/mL dosing sample (suspension or solution) in a 20% HP-β-CD vehicle.
3 fed female C57 mice were each dosed 5 mL/kg by gavage (PO) at a dose of 25 mg/kg. Blood samples were collected 4 hours after dosing, and then animals were killed by CO2. Colons near the end of the rectum, approximately 4-6 cm in length, were dissected, rinsed with cold saline, blotted dry with absorbent paper, and weighed.
Concentrations of the test compounds in the plasma and intestinal homogenate sample were quantified by LC-MS/MS using an API-4500 mass spectrometer with a plasma limit of quantitation (LOQ) of 1 ng/mL.

Data set [4] relates to IL-12-induced IFN-γ secretion in NK92 cells. The data set can be described thus: Inhibition of IL-12-induced IFN-γ secretion in NK92 cells (ELISA). To be noted: Homo sapiens, IL-12 stimulation, 24 hours, read-out: IC50 (NK92IL12/IFN-γ). In kind it is cell-based. How it is done:
The effect of the compounds of the present invention on IFN-γ secretion in IL-12-induced NK92 cells was evaluated by an enzyme-linked immunosorbent assay (ELISA).
The assay principle was generally described below: IL-12R was mainly expressed in activated T-cells, NK cells (NK92 was an NK cell line), DC cells, and B-cells. When binding to IL-12, it activated the JAK2/TYK2 signal transduction pathway within NK cells and activated T lymphocytes, thereby inducing secretion of IFN-γ.
The compound was dissolved to 2.5 mM in DMSO, followed by a serial 4-fold dilution with DMSO to a minimum concentration of 0.31 μM. Each concentration was further diluted 50-fold with an FBS-free MEMα medium (Thermofisher. 12561-056).
NK92 cells (Nanjing Cobioer, CBP60980) were cultured in a complete MEMα medium containing 12.5% FBS (Ausbian, VS500T), 12.5% horse serum (Thermofisher, 16050-122), 0.02 mM folic acid (Sigma, F8758), 0.2 mM inositol (Sigma, 17850), 0.55 mM β-mercaptoethanol (Thermofish, 21985-023), 200 U/mL IL-2 (R&D Systems, 202-1L), and 100 U/mL penicillin-streptomycin mixed liquor (ThermoFisher, 15140122). When covering 80-90% of the culture container surface, the cells were dispersed and plated on a 96-well plate (ThermoFisher, 167425) with 100,000 cells per well (80 μL of the complete MEMα medium without IL-2). The 96-well plate was then incubated overnight in a 37° C., 5% CO2 incubator.
After overnight incubation, 10 μL of the compound and 10 μL of 50 ng/ml IL-12 (R &D Systems, 219-1L) were added to each well and mixed gently, and the 96-well plate was incubated in the 37° C., 5% CO2 incubator for additional 24 hours. The plate was centrifuged at 800 rpm for 10 minutes at room temperature and 50 μL of the supernatant from each well was transferred to another 96-well plate (Sigma, CLS3695) coated with anti-IFN-γ antibody. The amount of IFN-γ secretion was detected following the instruction from the Human IFN-γ DuoSet ELISA assay kit (R & D Systems, DY285B). In this assay, the group in which IL-12 and the test compound were replaced with the MEMα medium was the non-stimulated control group (100% inhibition), and the group with IL-12 and 0.2% DMSO was the stimulated control group (0% inhibition). The compound inhibition curve was plotted using XLfit software and the IC50 of its inhibition was calculated.
(In general: ELISA stands for enzyme-linked immunosorbent assay.)

The mark [5] stands for this setting: colon homogenate, read-out: Colon exposure.
The mark [6] stands for this setting: plasma, LOQ 1 ng/mL, read-out: Plasma exposure.

On to `O=C(c1ccc(Nc2nc(-c3c(F)cccc3F)n3cc[nH]c(=O)c23)cc1)N1CCOCC1` [Compound 1, 3-(2,6-difluorophenyl)-1-((4-(morpholine-4-carbonyl)phenyl)amino)imidazo[1,5-a]pyrazin-8(7H)-one], for which the IC50 amounted to 0.2 nM in data set [1], 0.3 nM in data set [2] and 57 nM in data set [4]. Moreover, the concentration at 4 h was 5210 ng/g in data set [3] (setting [5]) and 249 ng/mL in data set [3] (setting [6]).
On the same counts, the results for `NC(=O)c1ccc(Nc2nc(-c3c(F)cccc3Cl)n3cc[nH]c(=O)c23)cc1` [Compound 28, 4-((3-(2-chloro-6-fluorophenyl)-8-oxo-7,8-dihydroimidazo[1,5-a]pyrazin-1-yl)amino)benzamide] are 0.03 nM, 0.6 nM, 38 nM, 2850 ng/g and 15 ng/mL.
For `CN1CCN(C(=O)c2ccc(Nc3nc(-c4c(F)cccc4F)n4cc[nH]c(=O)c34)cc2)CC1` [Compound 29, 3-(2,6-difluorophenyl)-1-((4-(4-methylpiperazine-1-carbonyl)phenyl)amino)imidazo[1,5-a]pyrazin-8(7H)-one], the IC50 in data set [1] was determined as 0.1 nM; in data set [2], 0.7 nM; in data set [4], 75 nM. In addition, the concentration at 4 h in data set [3] (setting [5]) stood at 3920 ng/g; in data set [3] (setting [6]) it was 75 ng/mL.
As to `O=C(c1ccc(Nc2nc(-c3c(F)cccc3F)n3cc[nH]c(=O)c23)cc1)N1CCNCC1` [Compound 30, 3-(2,6-difluorophenyl)-1-((4-(piperazine-1-carbonyl)phenyl)amino)imidazo[1,5-a]pyrazin-8(7H)-one], the IC50 in data set [1] was 0.1 nM; in data set [2], 0.8 nM; in data set [4] it was 318 nM. Besides, the Plasma exposure entry in data set [3] (plasma, LOQ 1 ng/mL) is listed as “BLOQ”. Besides, the concentration at 4 h in data set [3] (setting [5]) was 12200 ng/g.
Turning to `CC(C)(C(N)=O)c1ccc(Nc2nc(-c3c(F)cccc3F)n3cc[nH]c(=O)c23)cc1` [Compound 34, 2-(4-((3-(2,6-difluorophenyl)-8-oxo-7,8-dihydroimidazo[1,5-a]pyrazin-1-yl)amino)phenyl)-2-methylpropanamide], the IC50 in data set [1] came to 0.1 nM; in data set [2] it was 0.6 nM; in data set [4], 65 nM. Further, the concentration at 4 h in data set [3] (setting [5]) worked out at 2700 ng/g; in data set [3] (setting [6]), 50 ng/mL.
Consider `CC(C)(C(=O)N1CCNCC1)c1ccc(Nc2nc(-c3c(F)cccc3F)n3cc[nH]c(=O)c23)cc1` [Compound 36, 3-(2,6-difluorophenyl)-1-((4-(2-methyl-1-oxo-1-(piperazin-1-yl)propan-2-yl)phenyl)amino)imidazo[1,5-a]pyrazin-8(7H)-one], for which the IC50 came to 0.4 nM in data set [1], 0.6 nM in data set [2] and 3480 nM in data set [4]. Moreover, the concentration at 4 h worked out at 5090 ng/g in data set [3] (setting [5]) and 18 ng/mL in data set [3] (setting [6]).
For the compound `CN1CCN(C(=O)C(C)(C)c2ccc(Nc3nc(-c4c(F)cccc4Cl)n4cc[nH]c(=O)c34)cc2)CC1` [Compound 37, 3-(2-chloro-6-fluorophenyl)-1-((4-(2-methyl-1-(4-methylpiperazin-1-yl)-1-oxopropan-2-yl)phenyl)amino)imidazo[1,5-a]pyrazin-8(7H)-one], the IC50 in data set [1] came out at 0.2 nM; in data set [2], 0.6 nM; in data set [4], 268 nM.
For `CC(C)(C(=O)N1CCNCC1)c1ccc(Nc2nc(-c3c(F)cccc3Cl)n3cc[nH]c(=O)c23)cc1` [Compound 38, 3-(2-chloro-6-fluorophenyl)-1-((4-(2-methyl-1-oxo-1-(piperazin-1-yl)propan-2-yl)phenyl)amino)imidazo[1,5-a]pyrazin-8(7H)-one], in that order: 0.4 nM, 0.5 nM and 2850 nM.
`O=C(O)c1ccc(Nc2nc(-c3c(F)cccc3F)n3cc[nH]c(=O)c23)cc1` [Compound 39, 4-((3-(2,6-difluorophenyl)-8-oxo-7,8-dihydroimidazo[1,5-a]pyrazin-1-yl)amino)benzoic acid]: the IC50 in data set [1] worked out at 0.5 nM; in data set [2], 4.5 nM; in data set [4], 4100 nM.
In the case of `CC(C)(C(=O)O)c1ccc(Nc2nc(-c3c(F)cccc3F)n3cc[nH]c(=O)c23)cc1` [Compound 40, 2-(4-((3-(2,6-difluorophenyl)-8-oxo-7,8-dihydroimidazo[1,5-a]pyrazin-1-yl)amino)phenyl)-2-methylpropanoic acid], the IC50 in data set [1] came out at 0.4 nM; in data set [2], 2.8 nM; in data set [4], 406 nM.
